Patent US20030148991A1, “Combination of lipoic acid and c1 donors for the treatment of disorders of the central nervous system” (priority 2000, published 2003)

Columns and labels:
whole brain membranes = assay: Measurement of membrane fluidity (DPH fluorescence anisotropy); design: species or system NMRI mice; conditions: whole brain membranes from old (22 months) mice; 1, 10, 100 μmol/l and 1 mmol/l; 37° C.; FIGS. 1 and 2
Procedure: The fluidity of whole brain membranes (without cerebellum, medella oblongata and brain stem) from young (3 months) and old (22 months) NMRI mice was determined by fluorescence spectroscopy.
Mouse whole brain membranes were prepared by a modification of the method of Cohnen and Müller, 1993. The deep-frozen hemispheres were, after weighing, transferred into 15 ml of ice-cold buffer IV (Tris-HCl buffer 5 mmol/l; pH 7.4), homogenized using a homogenizer (Potter, glass homogenizer with Teflon pestle, from Braun) at about 1 100 rpm by moving the Teflon pestle up and down about ten times, and transferred into centrifuged tubes (PP30 ml, from Schubert). […]
Membrane fluidity can be measured inter alia by fluorescence spectroscopic methods. In fluorescence polarization spectroscopy, a membrane-bound fluorescent dye is brought to an excited energy state by polarized light of a particular wavelength. […] Membrane fluidity is therefore also indicated as fluorescence anisotropy besides the fluorescence polarization. The anisotropy is in this case calculated from the measured polarization.
The fluorescent dye diphenylhexatriene (DPH) was used for this purpose. […] This process is measured as anisotropy. […]

brain cells = assay: Measurement of the production of free radicals (DHR 123 fluorescence); format: cell-based; conditions: 100 and 500 μmol/l, time-dependent, compared with control, FIGS. 3 and 4
Procedure: Oxidative stress or the production of free radicals was measured using the fluorescence dye dihydrorhodamine (DHR 123). Brain cells were enriched by incubation with DHR 123 in a waterbath at 37° C. for 15 minutes. DHR is then located in particualr in the mitochondria and fluoresces after oxidation by free radicals. Fluorescence was measured at an excitation wavelength of 500 nm and an emission wavelength of 536 nm. The generation of free radicals was then measured in the absence (control) and presence of lipoic acid at various concentrations (100 and 500 μmol/l).

SMILES: O=C(O)CCCCC1CCSS1 (centres unmarked) [lipoic acid, 5-(1,2-dithiolan-3-yl)valeric acid]
- DPH anisotropy (membrane fluidity) (whole brain membranes): reduce the anisotropy in membranes from old mice
- generation of free radicals (increase in DHR 123 fluorescence) (brain cells): counteracts the generation of free radicals
